Test results taken from patent publication US7135303B2, “Regulators of type-1 tumor necrosis factor receptor and other cytokine receptor shedding” (The United States of America as represented by the …, priority 2000, dated 2006).
Entries after “also recorded” stand apart in the source; their conditions may differ.

B1: ARTS-1: aminopeptidase regulator of type I, 55 kDa tumor necrosis factor receptor ectodomain shedding; 941 amino acids, SEQ ID NO:2; overexpressed from pTarget (protein, listed as Homo sapiens)
chain: MVFLPLKWSLATMSFLLSSLLALLTVSTPSWCQSTEASPKRSDGTPFPWNKIRLPEYVIPVHYDLLIHANLTTLTFWGTTKVEITASQPTSTIILHSHHLQISRATLRKGAGERLSEEPLQVLEHPRQEQIALLAPEPLLVGLPYTVVIHYAGNLSETFHGFYKSTYRTKEGELRILASTQFEPTAARMAFPCFDEPAFKASFSIKIRREPRHLAISNMPLVKSVTVAEGLIEDHFDVTVKMSTYLVAFIISDFESVSKITKSGVKVSVYAVPDKINQADYALDAAVTLLEFYEDYFSIPYPLPKQDLAAIPDFQSGAMENWGLTTYRESALLFDAEKSSASSKLGITMTVAHELAHQWFGNLVTMEWWNDLWLNEGFAKFMEFVSVSVTHPELKVGDYFFGKCFDAMEVDALNSSHPVSTPVENPAQIREMFDDVSYDKGACILNMLREYLSADAFKSGIVQYLQKHSYKNTKNEDLWDSMASICPTDGVKGMDGFCSRSQHSSSSSHWHQEGVDVKTMMNTWTLQKGFPLITITVRGRNVHMKQEHYMKGSDGAPDTGYLWHVPLTFITSKSDMVHRFLLKTKTDVLILPEEVEWIKFNVGMNGYYIVHYEDDGWDSLTGLLKGTHTAVSSNDRASLINNAFQLVSIGKLSIEKALDLSLYLKHETEIMPVFQGLNELIPMYKLMEKRDMNEVETQFKAFLIRLLRDLIDKQTWTDEGSVSERMLRSQLLLLACVHNYQPCVQRAEGYFRKWKESNGNLSLPVDVTLAVFAVGAQSTEGWDFLYSKYQFSLSSTEKSQIEFALCRTQNKEKLQWLLDESFKGDKIKTQEFPQILTLIGRNPVGYPLAWQFLRKNWNKLVQKFELGSSSIAHMVMGTTNQFSTRTRLEEVKGFFSSLKENGSQLRCVQQTIETIEENIGWMDKNFDKIRVWLQSEKLERM
notes: aminopeptidase regulator of type I, 55 kDa tumor necrosis factor receptor ectodomain shedding; overexpressed from pTarget

Columns and labels:
Assay type in all cases: cell-based, human
[1] = tested on: ARTS-1 protein in NCI-H292 cells; test: Drug screening: ARTS-1 protein expression by Western immunoblot of membrane protein fractions; conditions: 0.1 μM PMA, 0 to 24 hours, membrane protein fraction
Method: In another embodiment of the screening method of the present invention, Western immunoblotting is used to assess the levels of ARTS-1 protein following exposure of a cell culture to a test compound. In this embodiment, cultured cells were exposed to a test compound, in this case, 4b-phorbol 12-myristate 13-acetate (PMA), and samples of tissue were collected at 0, 2, 8 and 24 hours following the exposure. Membrane proteins were isolated from these cells and subjected to Western immunoblot analysis, as described in Examples 4 and 5, using antiserum specific for the ARTS-1 protein. […] It is contemplated that compounds that can upregulate ARTS-1 protein levels are therapeutically advantageous, as such compounds can suppress a proinflammatory immune response by enhancing receptor ectodomain shedding. However, an understanding of the mechanism(s) is not required in order to use the present invention. […]
In the first method, cultured human NCI-H292 pulmonary mucoepidermoid carcinoma cells were exposed to a test compound, in this case, 4b-phorbol 12-myristate 13-acetate (PMA) at a concentration of 0.1 μM. […] The protein samples were analyzed in a Western immunoblot using the anti-ARTS-1 antiserum at the primary detection antibody, as described in Examples 4 and 5. The protein fractions were analyzed in duplicate, and the relative densitometry units for each lane are shown beneath the columns. […]

[2] = tested on: TNFR1 ectodomain shedding in NCI-H292 cells; test: TNFR1 ectodomain shedding assay (sTNFR1 sandwich ELISA of cell culture supernatants); conditions: for sTNFR1 in cell culture supernatant following PMA treatment: 24 hours
Method: The amount of TNFR1 ectodomain shedding occurring in each of these cell lines is depicted in FIG. 8. The levels of sTNFR1 ectodomain in cell culture supernatants from these cell lines were assayed using a commercially available sandwich-enzyme-linked immunosorbent assay (ELISA) technique (R & D Systems) with a lower limit of detection of 7.8 pg/ml.
Following the introduction and selection of these constructs in the host cell lines, the amount of TNFR1 ectodomain shedding occurring in each of the lines was determined by measuring the levels of sTNFR1 ectodomain in cell culture supernatants using a commercially available sandwich-enzyme-linked immunosorbent assay (ELISA) technique (R & D Systems) with a lower limit of detection of 7.8 pg/ml.
The amount of TNFR1 ectodomain shedding occurring in each of the stably transfected cell lines described in Example 9 was assessed. The levels of sTNFR1 ectodomain in cell culture supernatants from these cell lines were assayed by a commercially available sandwich-enzyme-linked immunosorbent assay (ELISA) technique (R & D Systems) with a lower limit of detection of 7.8 pg/ml. The protocol used was according to the manufacturer's instructions. The results of this assay are depicted in FIG. 8 as the mean of 5 independent experiments, with accompanying SEM (standard error of the mean) indicated above the bar.
A similar experiment analyzing the ability of ARTS-1 overexpression to potentiate the cleavage and shedding of TNFR ectodomain from the surface of NCI-H292 cells in response to PMA stimulation using these same cell lines is shown in FIG. 9.
This assay was further used to measure the sTNFR1 ectodomain shedding activity of ARTS-1 peptidase/protease catalytic mutants. The construction of these mutations (and resulting mutant cell lines) are described in Example 10. The ability of theses mutants to regulate sTNFR1 shedding was ascertained by measuring the concentration of sTNFR1 in the cell culture supernatant as described above in this Example.
Results from a second screening method are illustrated in FIG. 14, Panel B. In this screening method, cultured human NCI-H292 pulmonary mucoepidermoid carcinoma cells were again exposed to a test compound, PMA, at a concentration of 0.1 μM. Culture medium supernatant was collected from the cultures at intervals between 0 and 24 hours post treatment. The samples were analyzed by the TNFR1 ectodomain shedding assay using an ELISA as described in Example 11. In this assay, anti-sTNFR1 antibody was used to quantitate the concentrations of sTNFR1 in the cell culture supernatants. […] Thus, this screening method also identified a compound that is a candidate for further drug development.

[3] = tested on: membrane-associated TNFR1 in NCI-H292 cells; test: Membrane-associated TNFR1 by Western immunoblot of crude membrane fractions of stably transfected cells
Method: The degree of TNFR1 ectodomain shedding as a function of ARTS-1 protein expression was also assessed indirectly by determining the relative amounts of membrane-bound TNFR1 fragment in each of the stably transfected cell lines described above using the Western immunoblotting technique described in Example 5. Crude membrane fractions from the stably transfected NCI-H292 cells described in Example 9 were prepared and resolved by SDS-PAGE and analyzed by Western immunoblotting using a murine anti-human TNFR1 monoclonal primary antibody (R & D System) which detects the membrane fragment of the TNF receptor.
The degree of TNFR1 ectodomain shedding as a function of ARTS-1 protein expression was also indirectly assessed by determining the relative amounts of membrane-bound TNFR1 fragment in each of the stably transfected cell lines described in Example 9 using Western immunoblotting.
Crude membrane fractions from the stably transfected NCI-H292 cells described in Example 9 were prepared and protein concentrations were quantitated, as described above. Samples from these membrane-derived protein preparations were resolved by SDS-PAGE and analyzed by Western immunoblotting as described above in Example 5 using a murine anti-human TNFR1 monoclonal primary antibody which detected the membrane fragment of the receptor (R & D System). […]

Row | Molecule | ARTS-1 protein expression [1] | sTNFR1 in cell culture supernatant following PMA treatment ([2]; 0.1 μM PMA, NCI-H292 cell line containing only the empty pTarget vector) [pg/mL] | sTNFR1 in cell culture supernatant following PMA treatment ([2]; 0.1 μM PMA, NCI-H292 cell line overexpressing the ARTS-1 cDNA) [pg/mL] | sTNFR1 shedding compared to a control culture ([2]; NCI-H292 cells, 0.1 μM PMA, over the course of 24 hours, n=5, P<0.05) | membrane-associated TNFR1 relative to WT or Mock cell lines [3] | increase in sTNFR1 shedding ([2]; overexpression of ARTS-1 protein in stably transfected NCI-H292 cells vs Mock or WT controls) | level of sTNFR1 in cell culture supernatant compared to control cell lines (WT, Mock) ([2]; stably transfected NCI-H292 cell lines, mean of 5 independent experiments)
1 | CCCCCCCCCCCCCC(=O)O[C@@H]1[C@@H](C)[C@@]2(O)[C@@H](C=C(CO)C[C@]3(O)C(=O)C(C)=C[C@@H]23)[C@@H]2C(C)(C)[C@]12OC(C)=O [PMA, 4b-phorbol 12-myristate 13-acetate] | upregulation of ARTS-1 protein expression; also recorded: increase in ARTS-1 protein expression | 415.3 ± 4.5 | 914.2 ± 9.5 | increase in sTNFR1 shedding |  |  | 
2 | B1 |  |  |  |  | decrease | approximately 200% | significant increase; also recorded: significantly elevated level of sTNFR1
